Measurements from ChEMBL document CHEMBL5260795, “Antifungal potential of marine natural products” (Eur J Med Chem, 2017).
≈ marks a conversion by molar mass, not a printed value. Blank lines part the entries; values can stand above or below the molecule they belong to.

Tests used:
[1] = tested on: Candida albicans; test: Antifungal activity against Candida albicans; format: functional, organism-based
[2] = tested on: Candida albicans; test: Antifungal activity against Candida albicans assessed as fungal growth inhibition; format: functional
[3] = tested on: Saccharomyces cerevisiae; test: Antifungal activity against Saccharomyces cerevisiae; format: functional
[4] = tested on: Candida albicans; test: Antimicrobial activity against Candida albicans assessed as reduction of microbial microbial growth; format: functional
[5] = tested on: Botrytis cinerea; test: Antimicrobial activity against Botrytis cinerea incubated for 72 hrs by standard broth dilution method; format: functional
[6] = tested on: Aspergillus niger; test: Antimicrobial activity against Aspergillus niger incubated for 72 hrs by standard broth dilution method; format: functional
[7] = tested on: Saccharomyces cerevisiae; test: Antimicrobial activity against Saccharomyces cerevisiae incubated for 72 hrs by standard broth dilution method; format: functional
[8] = tested on: Candida albicans; test: Antimicrobial activity against Candida albicans incubated for 72 hrs by standard broth dilution method; format: functional
[9] = tested on: Rhizoctonia solani; test: Antimicrobial activity against Rhizoctonia solani incubated for 72 hrs by standard broth dilution method; format: functional
[10] = tested on: Colletotrichum acutatum; test: Antimicrobial activity against Colletotrichum acutatum incubated for 72 hrs by standard broth dilution method; format: functional
[11] = Inhibition of Candida albicans CaCdr1p transporter assessed as reduction in rhodamine 6G efflux
[12] = Inhibition of Candida albicans CaCdr1p transporter ATPase activity
[13] = tested on: Rhizoctonia solani; test: Antifungal activity against Rhizoctonia solani; format: functional
[14] = tested on: Botrytis cinerea; test: Antifungal activity against Botrytis cinerea; format: functional
[15] = tested on: Colletotrichum acutatum; test: Antifungal activity against Colletotrichum acutatum; format: functional
[16] = tested on: Aspergillus niger; test: Antifungal activity against Aspergillus niger; format: functional
[17] = tested on: Gaeumannomyces graminis; test: Antimicrobial activity against Gaeumannomyces graminis; format: functional

MIC [1]: 0.79 µg/mL (≈ 1.91 µM)
Structure (SMILES): C=C(CC[C@@H](C)[C@H]1CC[C@H]2C3=C(CC[C@]12C)[C@@]1(C)CC[C@H](O)C[C@@H]1C(=O)O3)C(C)C

MIC [2]: 0.62 µg/mL (≈ 2.54 µM)
Structure (SMILES): CCCC[C@H](CC)c1nc2ccccc2c(=O)[nH]1

MIC [2]: 0.62 µg/mL (≈ 2.52 µM)
Structure (SMILES): CCCC[C@H](CC)C1NC(=O)c2ccccc2N1 (stereo partly drawn)

MIC [1]: 2.48 µg/mL (≈ 3.49 µM)
Structure (SMILES): C[C@@H]1NC(=O)[C@@H](Cc2ccccc2)NC(=O)[C@@H](CO)NC(=O)c2ccccc2NC(=O)/C(=C\c2c[nH]c3ccccc23)NC(=O)[C@H]([C@@H](C)O)NC1=O

IC50 [11]: 2.29 µg/mL (≈ 3.61 µM) | IC50 [12]: 0.31 µg/mL (≈ 0.488 µM)
Structure (SMILES): CCC[C@@H]1CC(=O)N[C@@H](CC(C)C)C(=O)N[C@H](Cc2ccccc2)C(=O)N[C@@H](CC(C)C)C(=O)N[C@@H](Cc2ccccc2)C(=O)O1

IC50 [11]: 3.74 µg/mL (≈ 5.64 µM) | IC50 [12]: 0.46 µg/mL (≈ 0.694 µM)
Structure (SMILES): CCCCC[C@@H]1CC(=O)N[C@@H](CC(C)C)C(=O)N[C@H](Cc2ccccc2)C(=O)N[C@@H](CC(C)C)C(=O)N[C@@H](Cc2ccccc2)C(=O)O1

Further lines, the molecule ahead of its results:

Structure (SMILES): CCCCCCCCCCCC(=O)N(CCO)CCO
MIC [3]: 0.22 µg/mL (≈ 0.765 µM)

Structure (SMILES): CC1=CCC[C@H](C)[C@@]1(C)CC/C(C)=C/CC/C(C)=C/CS(=O)(=O)CCNC(=N)N
MIC [4]: 0.5 µg/mL

Structure (SMILES): C[C@@H]1CCCCC/C=C/[C@H](O)C[C@@H](O)C/C=C\C=C\[C@@H](O)C/C=C/C=C\C(=O)O1
MIC [5]: 0.02 µg/mL (≈ 0.0494 µM) | MIC [6]: 0.02 µg/mL (≈ 0.0494 µM) | MIC [7]: 0.02 µg/mL (≈ 0.0494 µM) | MIC [8]: 0.02 µg/mL (≈ 0.0494 µM) | MIC [9]: 0.02 µg/mL (≈ 0.0494 µM) | MIC [10]: 0.02 µg/mL (≈ 0.0494 µM)

Structure (SMILES): C[C@@H]1CCC/C=C/C=C/[C@H](O)C[C@@H](O)C/C=C\C=C\[C@@H](OC(=O)CCC(=O)O[C@H]2O[C@@H](CO)[C@H](O)[C@@H](O)[C@@H]2O)C/C=C/C=C\C(=O)O1
MIC [5]: 0.02 µg/mL (≈ 0.0301 µM) | MIC [6]: 0.02 µg/mL (≈ 0.0301 µM) | MIC [7]: 0.02 µg/mL (≈ 0.0301 µM) | MIC [8]: 0.02 µg/mL (≈ 0.0301 µM) | MIC [9]: 0.02 µg/mL (≈ 0.0301 µM) | MIC [10]: 0.02 µg/mL (≈ 0.0301 µM)

Structure (SMILES): CC(C)C[C@H](NC(=O)[C@@H](CCCNC(=N)N)NC(=O)[C@H](NC(=O)[C@H](NC(=O)[C@@H](NC(=O)[C@H](O)[C@H](O)[C@H](CCCNC(=N)N)NC(=O)[C@@H](C)NC(=O)[C@H](C)[C@H](O)[C@H](C)CC(C)C)[C@@H](C)[C@@H](C)C(N)=O)[C@@H](C)O)[C@@H](C)O)C(=O)N(C)[C@@H](CCC(N)=O)C(=O)O
MIC [1]: 0.1 µg/mL (≈ 0.0803 µM)

Structure (SMILES): CCCCCCCCCCCCCCC(=O)OCC(O)CO[C@@H]1O[C@H](CO[C@@H]2C[C@H](CO)[C@@H](O)[C@H](O)[C@H]2O)[C@@H](O)[C@H](O)[C@H]1O (stereo partly drawn)
MIC [1]: 0.02 µg/mL (≈ 0.0313 µM) | MIC [13]: 0.02 µg/mL (≈ 0.0313 µM) | MIC [14]: 0.02 µg/mL (≈ 0.0313 µM) | MIC [15]: 0.02 µg/mL (≈ 0.0313 µM) | MIC [16]: 0.02 µg/mL (≈ 0.0313 µM)

Structure (SMILES): C=C[C@@](C)(CC/C=C(\C)CC[C@]1(C)C(C=O)=CCC[C@H]1C)S(=O)(=O)CCNC(=N)N
MIC [4]: 4 µg/mL

Structure (SMILES): CC[C@H](CCCCCCCCCCCCC(=O)N[C@@H](C)C(=O)O)O[C@@H]1O[C@H](COC(=O)CCC(=O)O)[C@@H](O)[C@H](O)[C@H]1O
MIC [1]: 0.02 µg/mL (≈ 0.033 µM) | MIC [13]: 0.02 µg/mL (≈ 0.033 µM) | MIC [14]: 0.02 µg/mL (≈ 0.033 µM) | MIC [15]: 0.02 µg/mL (≈ 0.033 µM) | MIC [16]: 0.02 µg/mL (≈ 0.033 µM)

Structure (SMILES): C[C@@H]1CCC/C=C/[C@@H]2O[C@](O)(C[C@@H](O)C/C=C\C=C\C(O[C@@H]3O[C@H](CO)[C@@H](O)[C@H](O)[C@H]3O)C/C=C/C=C\C(=O)O1)[C@H]2O (stereo partly drawn)
MIC [3]: 0.22 µg/mL (≈ 0.369 µM)

Structure (SMILES): CS[C@@]12CC3=CC=C[C@H](O)[C@H]3N1C(=O)[C@@H]1C[C@@H]3C(=O)CC[C@@H](O)[C@@H]3N1C2=O
MIC [17]: 0.25 µg/mL (≈ 0.64 µM)

Structure (SMILES): CC1CCC/C=C/[C@@H]2O[C@@H](C/C=C\C=C\[C@H](O[C@@H]3O[C@H](CO)[C@@H](O)[C@H](O)[C@H]3O)C/C=C/C=C\C(=O)O1)C[C@@H](O)[C@H]2O (stereo partly drawn)
MIC [3]: 0.22 µg/mL (≈ 0.379 µM)

Structure (SMILES): C/C=C(\NC(=O)[C@@H](NC(=O)[C@H](O)[C@H](O)[C@H](CCCNC(=N)N)NC(=O)[C@@H](C)NC(=O)[C@H](C)[C@H](O)[C@H](C)CC(C)C)[C@@H](C)[C@@H](C)C(N)=O)C(=O)N[C@@H](C(=O)N[C@H](CCCNC(=N)N)C(=O)O)[C@@H](C)O
MIC [1]: 0.1 µg/mL (≈ 0.103 µM)
